Data from publication PMC10976746 (Molecular Medicine, 2024).

Key:
[1] = target: T1, Macrophage migration inhibitory factor (MIF) (Homo sapiens, UniProt P14174)
T1 sequence (P14174 2-115): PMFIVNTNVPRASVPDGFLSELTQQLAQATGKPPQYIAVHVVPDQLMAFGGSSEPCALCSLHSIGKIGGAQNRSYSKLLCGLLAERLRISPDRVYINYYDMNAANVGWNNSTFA

murine MIF = murine MIF (Mus musculus, UniProt P34884); test: dopachrome tautomerase inhibition assay, recombinant mouse MIF; type: biochemical

| SMILES | keto-enol tautomerase kinetics (Michaelis-Menten), enol-HPP/borate at 306 nm [1] | IC50 (murine MIF) |
| --- | --- | --- |
| O=C(O)C(=O)Cc1ccc(O)cc1 [4-HPP, 4-hydroxyphenylpyruvate] | (B) the substrate 4-HPP for MIF-induced keto-enol tautomerization | – |
| CS(=O)(=O)Nc1cc2occ(NC=O)c(=O)c2cc1Oc1ccccc1 [T-614, iguratimod] | – | 5.2 µM |
